Values quoted from earlier work in patent US11026985B2, “Methods for removing contaminants from plant-derived pharmaceuticals” (priority 2018, dated 2021).

Tests used:
[1] = permissible limit in Cannabis, State of Oregon

Question: With `Cc1c(COC(=O)[C@@H]2[C@H](/C=C(\Cl)C(F)(F)F)C2(C)C)cccc1-c1ccccc1` (racemic) [Bifenthrin] as the compound, how does the “Action Level (ppm)” value [1] read?
Answer: Its value is 0.2 ppm.

Question: For `COP(=O)(NC(C)=O)SC` (stereo not shown) [Acephate], which “Action Level (ppm)” value [1] is on record?
Answer: The value was 0.4 ppm.

Question: Which “Action Level (ppm)” value [1] does the source give for `CCCCCCCCCCCCC1=C(OC(C)=O)C(=O)c2ccccc2C1=O` [Acequinocyl] here?
Answer: The value was 2 ppm.

Question: For `C/C(=N\C#N)N(C)Cc1ccc(Cl)nc1` [Acetamiprid], which “Action Level (ppm)” value [1] is on record?
Answer: Its value is 0.2 ppm.

Question: Which “Action Level (ppm)” value [1] does the source give for `CNC(=O)O/N=C/C(C)(C)SC` [Aldicarb] here?
Answer: The value was 0.4 ppm.

Question: For `COc1ccc(-c2ccccc2)cc1NNC(=O)OC(C)C` [Bifenazate], which “Action Level (ppm)” value [1] is on record?
Answer: Its value is 0.2 ppm.

Question: With `O=C(Nc1ccccc1-c1ccc(Cl)cc1)c1cccnc1Cl` [Boscalid] as the compound, how does the “Action Level (ppm)” value [1] read?
Answer: The value was 0.4 ppm.

Question: With `C=C(C)[C@@H]1CCC(C)=C[C@H]1c1c(O)cc(CCC)cc1O` [Cannabidivarin] as the compound, how does the “Water Soluble?” value read?
Answer: The value was “No”.

Question: With `CCCCCc1cc(O)c(C/C=C(\C)CCC=C(C)C)c(O)c1` [Cannabigerol] as the compound, how does the “Water Soluble?” value read?
Answer: The value was “No”.

Question: With `CNC(=O)Oc1cccc2ccccc12` [Carbaryl] as the compound, how does the “Action Level (ppm)” value [1] read?
Answer: Its value is 0.2 ppm.

Question: For `CNC(=O)Oc1cccc2c1OC(C)(C)C2` [Carbofuran], which “Action Level (ppm)” value [1] is on record?
Answer: The value was 0.2 ppm.

Question: Which “Action Level (ppm)” value [1] does the source give for `CNC(=O)c1cc(Cl)cc(C)c1NC(=O)c1cc(Br)nn1-c1ncccc1Cl` [Chlorantraniliprole] here?
Answer: Its value is 0.2 ppm.

Question: For `CCOCn1c(-c2ccc(Cl)cc2)c(C#N)c(Br)c1C(F)(F)F` [Chlorfenapyr], which “Action Level (ppm)” value [1] is on record?
Answer: The value was 1 ppm.

Question: For `CC1(C)C(C=C(Cl)Cl)C1C(=O)OC(C#N)c1ccc(F)c(Oc2ccccc2)c1` (stereo not shown) [Cyfluthrin], which “Action Level (ppm)” value [1] is on record?
Answer: Its value is 1 ppm.

Question: With `COP(=O)(OC)OC=C(Cl)Cl` [DDVP (Dichlorvos)] as the compound, how does the “Action Level (ppm)” value [1] read?
Answer: The value was 0.1 ppm.

Question: With `CCOP(=S)(OCC)Oc1cc(C)nc(C(C)C)n1` [Diazinon] as the compound, how does the “Action Level (ppm)” value [1] read?
Answer: The value was 0.2 ppm.

Question: With `CNC(=O)CSP(=S)(OC)OC` [Dimethoate] as the compound, how does the “Action Level (ppm)” value [1] read?
Answer: Its value is 0.2 ppm.

Question: With `CCOc1ccc(C(C)(C)COCc2cccc(Oc3ccccc3)c2)cc1` [Etofenprox] as the compound, how does the “Action Level (ppm)” value [1] read?
Answer: The value was 0.4 ppm.

Question: For `CCOc1cc(C(C)(C)C)ccc1C1COC(c2c(F)cccc2F)=N1` (stereo not shown) [Etoxazole], which “Action Level (ppm)” value [1] is on record?
Answer: The value was 0.2 ppm.

Question: With `CCOC(=O)NCCOc1ccc(Oc2ccccc2)cc1` [Fenoxycarb] as the compound, how does the “Action Level (ppm)” value [1] read?
Answer: Its value is 0.2 ppm.

Question: Which “Action Level (ppm)” value [1] does the source give for `Cc1nn(C)c(Oc2ccccc2)c1/C=N/OCc1ccc(C(=O)OC(C)(C)C)cc1` [Fenpyroximate] here?
Answer: Its value is 0.4 ppm.

Question: Which “Action Level (ppm)” value [1] does the source give for `N#Cc1nn(-c2c(Cl)cc(C(F)(F)F)cc2Cl)c(N)c1[S+]([O-])C(F)(F)F` (stereo not shown) [Fipronil] here?
Answer: Its value is 0.4 ppm.

Question: With `N#CCNC(=O)c1cnccc1C(F)(F)F` [Flonicamid] as the compound, how does the “Action Level (ppm)” value [1] read?
Answer: Its value is 1 ppm.

Question: For `N#Cc1c[nH]cc1-c1cccc2c1OC(F)(F)O2` [Fludioxonil], which “Action Level (ppm)” value [1] is on record?
Answer: Its value is 0.4 ppm.

Question: Which “Action Level (ppm)” value [1] does the source give for `CC1C(c2ccc(Cl)cc2)SC(=O)N1C(=O)NC1CCCCC1` (stereo not shown) [Hexythiazox] here?
Answer: Its value is 1 ppm.

Question: For `C=CCOC(Cn1ccnc1)c1ccc(Cl)cc1Cl` (stereo not shown) [Imazalil], which “Action Level (ppm)” value [1] is on record?
Answer: Its value is 0.2 ppm.

Question: With `O=[N+]([O-])NC1=NCCN1Cc1ccc(Cl)nc1` [Imidacloprid] as the compound, how does the “Action Level (ppm)” value [1] read?
Answer: Its value is 0.4 ppm.

Question: With `CO/N=C(/C(=O)OC)c1ccccc1COc1ccccc1C` [Kresoxim-methyl, Kresoxim- methyl] as the compound, how does the “Action Level (ppm)” value [1] read?
Answer: Its value is 0.4 ppm.

Question: With `CCCCC(CC)CN1C(=O)C2C3C=CC(C3)C2C1=O` (stereo not shown) [MGK-264] as the compound, how does the “Action Level (ppm)” value [1] read?
Answer: The value was 0.2 ppm.

Question: For `CCOC(=O)CC(SP(=S)(OC)OC)C(=O)OCC` (stereo not shown) [Malathion], which “Action Level (ppm)” value [1] is on record?
Answer: Its value is 0.2 ppm.

Question: For `COCC(=O)N(c1c(C)cccc1C)C(C)C(=O)OC` (stereo not shown) [Metalaxyl], which “Action Level (ppm)” value [1] is on record?
Answer: The value was 0.2 ppm.

Question: Which “Action Level (ppm)” value [1] does the source give for `CNC(=O)Oc1cc(C)c(SC)c(C)c1` [Methiocarb] here?
Answer: Its value is 0.2 ppm.

Question: For `CNC(=O)ON=C(C)SC` [Methomyl], which “Action Level (ppm)” value [1] is on record?
Answer: Its value is 0.4 ppm.

Question: Which “Action Level (ppm)” value [1] does the source give for `CCCCC(C#N)(Cn1cncn1)c1ccc(Cl)cc1` (stereo not shown) [Myclobutanil] here?
Answer: Its value is 0.2 ppm.

Question: Which “Action Level (ppm)” value [1] does the source give for `COP(=O)(OC)OC(Br)C(Cl)(Cl)Br` (stereo not shown) [Naled] here?
Answer: The value was 0.5 ppm.

Question: Which “Action Level (ppm)” value [1] does the source give for `CNC(=O)O/N=C(\SC)C(=O)N(C)C` [Oxamyl] here?
Answer: The value was 1 ppm.

Question: For `CC1(C)C(C=C(Cl)Cl)C1C(=O)OCc1cccc(Oc2ccccc2)c1` (stereo not shown) [Permethrins], which “Action Level (ppm)” value [1] is on record?
Answer: Its value is 0.2 ppm.

Question: With `COP(=S)(OC)SCN1C(=O)c2ccccc2C1=O` [Phosmet] as the compound, how does the “Action Level (ppm)” value [1] read?
Answer: The value was 0.2 ppm.

Question: Which toxicity to humans (humans) does the source give for `CCCCOCCOCCOCc1cc2c(cc1CCC)OCO2` [Piperonyl butoxide] here?
Answer: Its toxicity to humans is “non-toxic”.

Question: For `C#CCC1=C(C)C(OC(=O)[C@@H]2[C@@H](C=C(C)C)C2(C)C)CC1=O` (stereo partly shown) [Prallethrin], which “Action Level (ppm)” value [1] is on record?
Answer: The value was 0.2 ppm.

Question: Which “Action Level (ppm)” value [1] does the source give for `CCCC1COC(Cn2cncn2)(c2ccc(Cl)cc2Cl)O1` (stereo not shown) [Propiconazole] here?
Answer: The value was 0.4 ppm.

Question: For `CNC(=O)Oc1ccccc1OC(C)C` [Propoxur], which “Action Level (ppm)” value [1] is on record?
Answer: Its value is 0.2 ppm.

Question: With `CC(C)(C)c1ccc(CSc2cnn(C(C)(C)C)c(=O)c2Cl)cc1` [Pyridaben] as the compound, how does the “Action Level (ppm)” value [1] read?
Answer: Its value is 0.2 ppm.

Question: For `Cc1cc(C)c(C2=C(OC(=O)CC(C)(C)C)C3(CCCC3)OC2=O)c(C)c1` [Spiromesifen], which “Action Level (ppm)” value [1] is on record?
Answer: Its value is 0.2 ppm.

Question: With `CCOC(=O)OC1=C(c2cc(C)ccc2C)C(=O)N[C@]12CC[C@@H](OC)CC2` [Spirotetramat] as the compound, how does the “Action Level (ppm)” value [1] read?
Answer: Its value is 0.2 ppm.

Question: For `CCCN(CC)CC1COC2(CCC(C(C)(C)C)CC2)O1` (stereo not shown) [Spiroxamine], which “Action Level (ppm)” value [1] is on record?
Answer: The value was 0.4 ppm.

Question: Which “Action Level (ppm)” value [1] does the source give for `CC(C)(C)C(O)(CCc1ccc(Cl)cc1)Cn1cncn1` (stereo not shown) [Tebuconazole] here?
Answer: The value was 0.4 ppm.

Question: For `N#C/N=C1\SCCN1Cc1ccc(Cl)nc1` [Thiacloprid], which “Action Level (ppm)” value [1] is on record?
Answer: The value was 0.2 ppm.

Question: For `CN1COCN(Cc2cnc(Cl)s2)/C1=N\[N+](=O)[O-]` [Thiamethoxam], which “Action Level (ppm)” value [1] is on record?
Answer: The value was 0.2 ppm.

Question: With `CO/N=C(/C(=O)OC)c1ccccc1CO/N=C(\C)c1cccc(C(F)(F)F)c1` [Trifloxystrobin] as the compound, how does the “Action Level (ppm)” value [1] read?
Answer: Its value is 0.2 ppm.

Question: With Abamectin as the compound, how does the “Action Level (ppm)” value [1] read?
Answer: Its value is 0.5 ppm.

Question: For Spinosad, which “Action Level (ppm)” value [1] is on record?
Answer: Its value is 0.2 ppm.
